The source of these data is publication PMC8494430, “Development of a fluorogenic ADAMTS-7 substrate” (Journal of Enzyme Inhibition and Medicinal Chemistry, 2021).

The target of one assay is T1, ADAMTS-5 (Homo sapiens, UniProt Q9UNA0).
T1 construct: made in house
T1 sequence (Q9UNA0 262-930): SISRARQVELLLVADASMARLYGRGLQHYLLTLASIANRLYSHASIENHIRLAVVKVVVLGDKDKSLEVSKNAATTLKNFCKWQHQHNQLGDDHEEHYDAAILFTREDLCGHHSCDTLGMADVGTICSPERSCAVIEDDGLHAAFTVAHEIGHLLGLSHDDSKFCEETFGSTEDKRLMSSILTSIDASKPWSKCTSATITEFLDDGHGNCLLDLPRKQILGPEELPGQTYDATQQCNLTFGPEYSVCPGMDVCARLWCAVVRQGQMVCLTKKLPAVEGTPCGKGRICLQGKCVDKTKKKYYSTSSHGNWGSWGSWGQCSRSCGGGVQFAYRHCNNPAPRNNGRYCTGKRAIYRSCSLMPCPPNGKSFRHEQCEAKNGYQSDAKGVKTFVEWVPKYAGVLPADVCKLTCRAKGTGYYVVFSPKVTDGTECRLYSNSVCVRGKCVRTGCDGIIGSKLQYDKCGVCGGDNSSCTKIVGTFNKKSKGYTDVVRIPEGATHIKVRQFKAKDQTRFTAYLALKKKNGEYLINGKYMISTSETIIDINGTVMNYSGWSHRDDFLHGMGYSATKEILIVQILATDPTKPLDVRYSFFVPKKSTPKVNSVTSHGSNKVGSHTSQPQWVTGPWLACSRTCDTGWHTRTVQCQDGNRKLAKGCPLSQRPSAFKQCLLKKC
The assay can be described thus: Cleavage of ATS7FP7 by ADAMTS-5 (kinetic constants). In kind it is biochemical. As to conditions: cleavage of ATS7FP7 by ADAMTS-5 (10 nM), 37 °C; curve did not reach a proper plateau. The procedure: All enzyme assays were conducted in TNC-B buffer (50 mM Tris- HCl, pH 7.5, 150 mM NaCl, 10 mM CaCl2, and 0.02% NaN3) at 37 °C in 384 well plates (Cat. No: 784900, Greiner Bio-One, Austria). To avoid the formation of inhibitor or peptide aggregates, the detergent Brij-35 (0.05%) was added to TNC-B[13]. For inhibition studies, stock solutions of chemical compounds were prepared in dimethyl sulfoxide (DMSO) (10 mM). These were further diluted at different concentrations in TNC-B and incubated with ADAMTS-1, ADAMTS-4, ADAMTS-5, ADAMTS-7 or ADAMTS-8 (10 nM) for 1 h at 37 °C. Blank samples were prepared using buffer only and the rate of cleavage for blank reactions was subtracted from the rates measured in the presence of enzyme. Upon addition of the indicated ADAMTS-7 FRET substrates (40 µM), the fluorescence was measured immediately using a FLUOstar Omega microplate reader (BMG Labtech, Germany) with an excitation filter wavelength of 485 nm and an emission filter wavelength of 520 nm. […]
Supplementary Figure 6: Cleavage of ATS7FP7 by members of the ADAMTS family. […] Fluorescence was detected (λex = 485 nm, λem = 520 nm) for 8 h at 37°C and reported as relative fluorescence units (RFU). […]

A further assay deals with T2, ADAMTS-7 (Homo sapiens, UniProt Q9UKP4).
T2 construct: the recombinant construct ADAMTS7-T8, which lacks the C-terminal PLAC domain; made in house
T2 sequence (Q9UKP4 237-1631 limits assumed): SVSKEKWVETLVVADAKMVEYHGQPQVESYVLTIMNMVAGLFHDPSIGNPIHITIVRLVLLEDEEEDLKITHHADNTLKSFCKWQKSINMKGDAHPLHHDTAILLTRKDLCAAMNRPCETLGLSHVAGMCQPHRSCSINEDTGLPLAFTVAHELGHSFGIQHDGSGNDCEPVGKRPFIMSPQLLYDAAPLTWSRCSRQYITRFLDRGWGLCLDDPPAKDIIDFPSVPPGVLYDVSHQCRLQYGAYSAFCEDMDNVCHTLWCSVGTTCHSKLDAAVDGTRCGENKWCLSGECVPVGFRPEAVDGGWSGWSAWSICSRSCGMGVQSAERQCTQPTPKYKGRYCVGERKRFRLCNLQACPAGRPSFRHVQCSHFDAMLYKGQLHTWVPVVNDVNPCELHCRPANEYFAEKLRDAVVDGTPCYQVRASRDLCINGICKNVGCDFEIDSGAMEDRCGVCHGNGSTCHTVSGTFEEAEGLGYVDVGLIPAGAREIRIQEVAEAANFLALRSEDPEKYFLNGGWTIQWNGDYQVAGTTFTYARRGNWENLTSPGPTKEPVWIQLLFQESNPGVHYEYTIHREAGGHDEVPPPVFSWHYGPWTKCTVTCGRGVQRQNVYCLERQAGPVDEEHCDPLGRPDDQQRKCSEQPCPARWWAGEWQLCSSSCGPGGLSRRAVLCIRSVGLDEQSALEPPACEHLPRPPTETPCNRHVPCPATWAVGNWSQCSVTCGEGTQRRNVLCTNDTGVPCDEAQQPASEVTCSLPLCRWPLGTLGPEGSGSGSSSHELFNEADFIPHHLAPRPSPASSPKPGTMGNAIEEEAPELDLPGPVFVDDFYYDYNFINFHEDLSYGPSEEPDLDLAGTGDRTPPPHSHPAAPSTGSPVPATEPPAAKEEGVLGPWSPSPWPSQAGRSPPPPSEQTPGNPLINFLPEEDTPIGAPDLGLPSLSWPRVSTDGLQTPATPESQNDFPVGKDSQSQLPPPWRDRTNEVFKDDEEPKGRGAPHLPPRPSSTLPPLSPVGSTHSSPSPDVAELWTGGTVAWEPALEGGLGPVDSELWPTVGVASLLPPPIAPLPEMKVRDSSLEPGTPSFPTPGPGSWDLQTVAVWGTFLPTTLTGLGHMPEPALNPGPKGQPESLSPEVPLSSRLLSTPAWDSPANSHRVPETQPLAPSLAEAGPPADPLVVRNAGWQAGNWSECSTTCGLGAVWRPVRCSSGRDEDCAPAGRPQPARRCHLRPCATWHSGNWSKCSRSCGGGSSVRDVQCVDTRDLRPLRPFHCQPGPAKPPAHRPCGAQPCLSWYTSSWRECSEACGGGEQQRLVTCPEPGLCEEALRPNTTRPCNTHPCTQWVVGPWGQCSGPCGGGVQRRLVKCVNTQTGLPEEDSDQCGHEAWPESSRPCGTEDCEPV
In words: Cleavage of FRET peptides by ADAMTS-7 (kinetic constants, cleavage rate). It is filed as biochemical. The following applies: 37 °C. Here is the method: All enzyme assays were conducted in TNC-B buffer (50 mM Tris- HCl, pH 7.5, 150 mM NaCl, 10 mM CaCl2, and 0.02% NaN3) at 37 °C in 384 well plates (Cat. No: 784900, Greiner Bio-One, Austria). To avoid the formation of inhibitor or peptide aggregates, the detergent Brij-35 (0.05%) was added to TNC-B[13]. For inhibition studies, stock solutions of chemical compounds were prepared in dimethyl sulfoxide (DMSO) (10 mM). These were further diluted at different concentrations in TNC-B and incubated with ADAMTS-1, ADAMTS-4, ADAMTS-5, ADAMTS-7 or ADAMTS-8 (10 nM) for 1 h at 37 °C. Blank samples were prepared using buffer only and the rate of cleavage for blank reactions was subtracted from the rates measured in the presence of enzyme. Upon addition of the indicated ADAMTS-7 FRET substrates (40 µM), the fluorescence was measured immediately using a FLUOstar Omega microplate reader (BMG Labtech, Germany) with an excitation filter wavelength of 485 nm and an emission filter wavelength of 520 nm.
Relative Fluorescence Units (RFU) were converted into product concentration by dividing for the number of RFU generated upon complete digestion of 2.5 µM substrate. kcat values were determined by dividing Vmax by [E]t. Correction for inner filter effects was performed as before.

Where [1] appears, read: cleavage of ATS7FP7 by ADAMTS-7 (10 nM).

The term Km denotes the concentration of substrate that gives half-maximal velocity. As a reminder, the kcat is the number of substrate molecules converted per active site and unit of time at saturation.

With “Glu-Ala-Ala-Ala-Arg↓Ala-Glu↓Ala-Ala-Ala-Lys [ATS7FP7]”, the results for the Km at ADAMTS-5 and at ADAMTS-7 (setting [1]) were 81 ± 24 µM and 10.5 ± 1.5 µM, respectively. Moreover, the kcat at ADAMTS-5 turned out to be 0.225 ± 0.042 s⁻¹; at ADAMTS-7 (setting [1]), 0.035 ± 0.0017 s⁻¹. Further, the “cleavage rate by ADAMTS-7” value at ADAMTS-7 (FRET peptides 40 μM, ADAMTS-7 10 nM) was “increased compared to that of ATS7FP0”.
